Structures can show the parent of a compound that is named as a salt.
Assays:
[1] = target: T1, B1R receptor of the rat (Rattus norvegicus, UniProt P97583); assay: Functional study on the bradykinin receptor 1 (B1R), FLIPR Ca2+ assay, rB1R cells; type: cell-based; conditions: agonist Des-Arg9-bradykinin 100 nM, % inhibition compared with the maximum achievable inhibition; for inhibition at 10 µM: CHO-K1, test substance 10 μM, read-out: B1R Antagonism, rat [10 μM] % Inhibition
T1 construct: host or cells: CHO K1 cells (Chinese hamster ovary), stably transfected
T1 sequence (P97583 1-337): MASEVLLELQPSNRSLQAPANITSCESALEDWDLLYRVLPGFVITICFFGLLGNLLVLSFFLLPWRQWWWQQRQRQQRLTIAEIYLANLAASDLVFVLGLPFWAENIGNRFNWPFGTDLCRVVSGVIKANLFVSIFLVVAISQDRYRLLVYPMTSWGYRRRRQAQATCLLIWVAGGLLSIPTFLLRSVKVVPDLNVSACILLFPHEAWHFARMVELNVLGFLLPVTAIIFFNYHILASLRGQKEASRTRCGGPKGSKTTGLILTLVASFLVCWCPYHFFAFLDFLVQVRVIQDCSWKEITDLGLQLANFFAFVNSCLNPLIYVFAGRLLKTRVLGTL
How it was run: (§1)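 Readout: peak Fluo-4 Ca2+ fluorescence, FLIPR. Stable CHO K1 hB1R or rB1R cells; cpd 10 μM, 10 min preincubation, then agonist (hB1R: Lys-Des-Arg9-BK 0.5 nM; rB1R: Des-Arg9-BK 100 nM). Value = % inhibition relative to maximal achievable inhibition.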

[2] = target: T2, human B1R receptor (Homo sapiens, UniProt P46663); assay: Functional study on the bradykinin receptor 1 (B1R), FLIPR Ca2+ assay, hB1R cells; type: cell-based; conditions: agonist Lys-Des-Arg9-bradykinin 0.5 nM, % inhibition compared with the maximum achievable inhibition; for inhibition at 10 µM: CHO-K1, test substance 10 μM, read-out: B1R Antagonism, human [10 μM] % Inhibition
T2 construct: host or cells: CHO K1 cells (Chinese hamster ovary), stably transfected
T2 sequence (P46663 1-353): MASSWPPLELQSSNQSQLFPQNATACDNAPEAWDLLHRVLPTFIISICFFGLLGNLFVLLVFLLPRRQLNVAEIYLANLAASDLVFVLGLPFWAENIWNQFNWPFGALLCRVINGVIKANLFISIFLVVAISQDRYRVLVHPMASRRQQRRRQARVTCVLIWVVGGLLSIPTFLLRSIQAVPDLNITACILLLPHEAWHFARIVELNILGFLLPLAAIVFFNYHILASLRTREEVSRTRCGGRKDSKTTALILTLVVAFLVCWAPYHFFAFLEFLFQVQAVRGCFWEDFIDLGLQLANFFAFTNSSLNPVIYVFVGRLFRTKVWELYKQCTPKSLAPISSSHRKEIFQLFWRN
How it was run: as §1

SMILES	inhibition at 10 µM [1]	inhibition at 10 µM [2]	B1R Antagonism, rat [10 μM] % Inhibition ([1]; test substance 10 μM, rB1R CHO K1 cells)	B1R Antagonism, human [10 μM] % Inhibition ([2]; test substance 10 μM, hB1R CHO K1 cells)
CN1CCC(N2CCN(C(=O)COCC3CCCCN3S(=O)(=O)c3c(Cl)cc(Cl)cc3Cl)CC2)CC1 (stereo not shown) [Example 118, 1-(4-(1-methylpiperidin-4-yl)piperazin-1-yl)-2-((1-(2,4,6-trichlorophenylsulfonyl)piperidin-2-yl)methoxy)ethanone]	102%	104%	–	–
CC(C)c1cc(C(C)C)c(S(=O)(=O)N2CCCCC2COCC(=O)N2CCN(C3CCN(C)CC3)CC2)c(C(C)C)c1 (stereo not shown) [Example 119, 1-(4-(1-methylpiperidin-4-yl)piperazin-1-yl)-2-((1-(2,4,6-triisopropylphenylsulfonyl)piperidin-2-yl)methoxy)ethanone]	61.9%	95.9%	–	–
CN1CCC(N2CCN(C(=O)COCC3CCCCN3S(=O)(=O)c3ccc(Cl)cc3Cl)CC2)CC1 (stereo not shown) [Example 120, 2-((1-(2,4-dichlorophenylsulfonyl)piperidin-2-yl)methoxy)-1-(4-(1-methylpiperidin-4-yl)piperazin-1-yl)ethanone]	103%	103%	–	–
CN1CCC(N2CCN(C(=O)COCC3CCCCN3S(=O)(=O)c3cccc(Br)c3)CC2)CC1 (stereo not shown) [Example 121, 2-((1-(3-bromophenylsulfonyl)piperidin-2-yl)methoxy)-1-(4-(1-methylpiperidin-4-yl)piperazin-1-yl)ethanone]	52.7%	70.5%	–	–
O=C(COCC1CCCCN1S(=O)(=O)c1cccc(Br)c1)N1CCN(c2ccncc2)CC1 (stereo not shown) [Example 122, 2-((1-(3-bromophenylsulfonyl)piperidin-2-yl)methoxy)-1-(4-(pyridin-4-yl)piperazin-1-yl)ethanone]	13%	12.1%	–	–
CN1CCC(N2CCN(C(=O)COCC3CCCCN3S(=O)(=O)c3ccc(Br)cc3)CC2)CC1 (stereo not shown) [Example 123, 2-((1-(4-bromophenylsulfonyl)piperidin-2-yl)methoxy)-1-(4-(1-methylpiperidin-4-yl)piperazin-1-yl)ethanone]	79.9%	43.9%	–	–
O=C(COCC1CCCCN1S(=O)(=O)c1cccc(Br)c1)N1CCC(CCN2CCCC2)CC1 (stereo not shown) [Example 124, 2-((1-(3-bromophenylsulfonyl)piperidin-2-yl)methoxy)-1-(4-(2-(pyrrolidin-1-yl)ethyl)piperidin-1-yl)ethanone]	63.2%	76.3%	–	–
O=C(COCC1CCCCN1S(=O)(=O)c1ccc(Br)cc1)N1CCC(CCN2CCCC2)CC1 (stereo not shown) [Example 125, 2-((1-(4-bromophenylsulfonyl)piperidin-2-yl)methoxy)-1-(4-(2-(pyrrolidin-1-yl)ethyl)piperidin-1-yl)ethanone]	95.4%	50.6%	–	–
O=C(COCC1CCCCN1S(=O)(=O)c1ccc(Br)cc1)N1CCN(c2ccncc2)CC1 (stereo not shown) [Example 126, 2-((1-(4-bromophenylsulfonyl)piperidin-2-yl)methoxy)-1-(4-(pyridin-4-yl)piperazin-1-yl)ethanone]	81.1%	46.4%	–	–
COc1cc(C)c(S(=O)(=O)N2Cc3ccccc3C[C@H]2COCC(=O)N2CCN(C3CCN(C)CC3)CC2)c(C)c1 [Example 127, (S)-2-((2-(4-methoxy-2,6-dimethylphenylsulfonyl)-1,2,3,4-tetrahydroisoquinolin-3-yl)methoxy)-1-(4-(1-methylpiperidin-4-yl)piperazin-1-yl)ethanone]	93.7%	102%	–	–
Cc1nn(C)c(Cl)c1S(=O)(=O)N1CCCCC1COCC(=O)N1CCN(C2CCN(C)CC2)CC1 (stereo not shown) [Example 128, 2-((1-(5-chloro-1,3-dimethyl-1H-pyrazol-4-ylsulfonyl)piperidin-2-yl)methoxy)-1-(4-(1-methylpiperidin-4-yl)piperazin-1-yl)ethanone]	94.5%	90.8%	–	–
CN1CCC(N2CCN(C(=O)COCC3CCCCN3S(=O)(=O)c3c(Cl)nc4sccn34)CC2)CC1 (stereo not shown) [Example 129, 2-((1-(6-chloroimidazo[2,1-b]thiazol-5-ylsulfonyl)piperidin-2-yl)methoxy)-1-(4-(1-methylpiperidin-4-yl)piperazin-1-yl)ethanone]	31.2%	0.03%	–	–
COc1cc(C)c(S(=O)(=O)N2CCCCC2COCC(=O)N2CCC(N3CCC(F)CC3)CC2)c(C)c1 (stereo not shown) [Example 130, 1-(4-fluoro-1,4′-bipiperidin-1′-yl)-2-((1-(4-methoxy-2,6-dimethylphenylsulfonyl)piperidin-2-yl)methoxy)ethanone]	96.3%	103%	–	–
Cc1ccccc1Oc1cccc(S(=O)(=O)N2CCCCC2COCC(=O)N2CCN(C3CCN(C)CC3)CC2)c1 (stereo not shown) [Example 131, 1-(4-(1-methylpiperidin-4-yl)piperazin-1-yl)-2-((1-(3-(o-tolyloxy)phenylsulfonyl)piperidin-2-yl)methoxy)ethanone]	95.4%	82.1%	–	–
CN1CCC(N2CCN(C(=O)COC[C@@H]3Cc4ccccc4CN3S(=O)(=O)c3ccc(Cl)cc3Cl)CC2)CC1 [Example 133, (S)-2-((2-(2,4-dichlorophenylsulfonyl)-1,2,3,4-tetrahydroisoquinolin-3-yl)methoxy)-1-(4-(1-methylpiperidin-4-yl)piperazin-1-yl)ethanone]	98.1%	103%	–	–
COc1cc(C)c(S(=O)(=O)N2CCCCC2COCC(=O)N2CCN(C3CCC(C(F)(F)F)CC3)CC2)c(C)c1 (stereo not shown) [Example 134, 2-((1-(4-methoxy-2,6-dimethylphenylsulfonyl)piperidin-2-yl)methoxy)-1-(4-(4-(trifluoromethyl)cyclohexyl)piperazin-1-yl)ethanone]	98.2%	102%	–	–
COc1cc(C)c(S(=O)(=O)N2CC[C@H]2COCC(=O)N2CCN(C3CCN(C)CC3)CC2)c(C)c1 [Example 135, (S)-2-((1-(4-methoxy-2,6-dimethylphenylsulfonyl)azetidin-2-yl)methoxy)-1-(4-(1-methylpiperidin-4-yl)piperazin-1-yl)ethanone]	98.3%	103%	–	–
COc1cc(C)c(S(=O)(=O)N2CCCCC2COCC(=O)N2CCC(NCC(c3cccnc3)N3CCOCC3)CC2)c(C)c1 (stereo not shown) [Example 136, 2-((1-(4-methoxy-2,6-dimethylphenylsulfonyl)piperidin-2-yl)methoxy)-1-(4-(2-morpholin-2-(pyridin-3-yl)ethylamino)piperidin-1-yl)ethanone]	–	–	98.94%	103.97%
CN1CCC(N2CCN(C(=O)COCC3CCCCN3S(=O)(=O)c3csc4ccccc34)CC2)CC1 (stereo not shown) [Example 137, 2-((1-(benzo[b]thiophen-3-ylsulfonyl)piperidin-2-yl)methoxy)-1-(4-(1-methylpiperidin-4-yl)piperazin-1-yl)ethanone]	98.8%	102%	–	–
CN1CCC(N2CCN(C(=O)COCC3CCCCN3S(=O)(=O)c3ccc(C(F)(F)F)cc3Cl)CC2)CC1 (stereo not shown) [Example 138, 2-((1-(2-chloro-4-(trifluoromethyl)phenylsulfonyl)piperidin-2-yl)methoxy)-1-(4-(1-methylpiperidin-4-yl)piperazin-1-yl)ethanone]	98.5%	104%	–	–
CN1CCC(N2CCN(C(=O)COCC3CCCCN3S(=O)(=O)c3ccccc3Cl)CC2)CC1 (stereo not shown) [Example 139, 2-((1-(2-chlorophenylsulfonyl)piperidin-2-yl)methoxy)-1-(4-(1-methylpiperidin-4-yl)piperazin-1-yl)ethanone dihydrochloride]	98.8%	99.9%	–	–
COc1cc(C)c(S(=O)(=O)N2CCC[C@@H]2COCC(=O)N2CCN(C3CCN(C)CC3)CC2)c(C)c1C [Example 140, (R)-2-((1-(4-methoxy-2,3,6-trimethylphenylsulfonyl)pyrrolidin-2-yl)methoxy)-1-(4-(1-methylpiperidin-4-yl)piperazin-1-yl)ethanone dihydrochloride]	80.7%	100%	–	–
CN1CCC(N2CCN(C(=O)COCC3CCCCN3S(=O)(=O)c3c(Cl)cccc3Cl)CC2)CC1 (stereo not shown) [Example 141, 2-((1-(2,6-dichlorophenylsulfonyl)piperidin-2-yl)methoxy)-1-(4-(1-methylpiperidin-4-yl)piperazin-1-yl)ethanone dihydrochloride]	101%	101%	–	–

Source: patent US8435978B2, “Substituted sulfonamide compounds” (Gruenenthal GmbH, priority 2006, dated 2013)
